As usually defined, the Kd is the constant that tells how readily two partners part at equilibrium.

SMILES strings stand for the structures.

Results on 1 compound are retold here after PMC3057186, “Identification and characterization of seven new exon 11-associated splice variants of the rat mu opioid receptor gene, OPRM1” (Molecular Pain, 2011).

Holding throughout (assay): [3H]DAMGO saturation binding, CHO membranes
One experiment addresses T1, rMOR-1H1 (Rattus norvegicus, UniProt B8Q1M0).
T1 construct: gene Oprm1; exon 11-associated transcript predicting the same protein as rMOR-1 (AUG in exon 1a)

A further experiment concerns the target T2, rMOR-1i2 (Rattus norvegicus, UniProt B8Q1M0).
T2 construct: gene Oprm1; exon 11-associated transcript predicting the same protein as rMOR-1 (AUG in exon 1a)

The target in another experiment is T3, rMOR-1H2 (Rattus norvegicus, UniProt D2CKI5).
T3 construct: gene Oprm1; 7 TM
T3 sequence (D2CKI5 1-448): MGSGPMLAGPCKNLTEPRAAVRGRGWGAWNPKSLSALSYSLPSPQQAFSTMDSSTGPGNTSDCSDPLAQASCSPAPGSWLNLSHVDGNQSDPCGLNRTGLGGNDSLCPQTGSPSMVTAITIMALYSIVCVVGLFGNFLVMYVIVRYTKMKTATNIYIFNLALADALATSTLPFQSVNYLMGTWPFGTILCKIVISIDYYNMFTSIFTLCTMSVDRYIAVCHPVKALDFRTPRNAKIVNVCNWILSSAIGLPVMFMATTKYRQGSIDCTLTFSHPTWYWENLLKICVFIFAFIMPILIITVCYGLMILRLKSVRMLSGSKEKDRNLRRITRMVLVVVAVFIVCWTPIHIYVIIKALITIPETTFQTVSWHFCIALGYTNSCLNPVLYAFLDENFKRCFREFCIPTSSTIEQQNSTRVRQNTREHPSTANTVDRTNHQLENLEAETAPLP

T1 sequence (B8Q1M0 1-398): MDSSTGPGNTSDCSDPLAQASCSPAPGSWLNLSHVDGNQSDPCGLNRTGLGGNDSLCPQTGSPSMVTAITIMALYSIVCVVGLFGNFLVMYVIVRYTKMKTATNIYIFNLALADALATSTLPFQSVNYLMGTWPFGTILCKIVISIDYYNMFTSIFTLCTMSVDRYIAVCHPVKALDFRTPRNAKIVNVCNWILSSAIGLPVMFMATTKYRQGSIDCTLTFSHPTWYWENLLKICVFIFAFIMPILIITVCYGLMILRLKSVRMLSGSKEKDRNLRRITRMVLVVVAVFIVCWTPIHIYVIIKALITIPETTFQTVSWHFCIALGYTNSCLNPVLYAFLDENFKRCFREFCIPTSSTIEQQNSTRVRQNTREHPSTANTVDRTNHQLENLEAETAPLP
T2 sequence (B8Q1M0 1-398): as above

On to `C[C@@H](NC(=O)[C@@H](N)Cc1ccc(O)cc1)C(=O)NCC(=O)N(C)[C@@H](Cc1ccccc1)C(=O)NCCO` [DAMGO], for which the Kd came out at 0.51 ± 0.05 nM at rMOR-1H1, 0.36 ± 0.04 nM on rMOR-1i2 and 0.37 ± 0.02 nM at rMOR-1H2.
